As a reminder, the IC50 is the concentration needed to halve the response being measured. As usually defined, the EC50 is the concentration at which the effect is half-maximal. Lower therefore signals higher potency in that assay.

Some results are limits rather than exact numbers.

Assay [1] concerns the target WT full length PAICS (Homo sapiens (Human), UniProt P22234). Nature of the assay: Biochemical assay to measure PAICS activity (Transcreener ADP2 FI). Particulars: SAICAR synthetase reaction, ADP detection, 30 min pre-incubation. From the text:
Biochemical Assay to Measure PAICS Activity
The biochemical assay was used to measure PAICS SAICAR synthetase-mediated conversion of CAIR, aspartic acid and ATP to SAICAR, ADP and inorganic phosphate (Pi), post-AIR/CAIR equilibration (see FIG. 3). This was achieved by detecting the ADP generated during the reaction, using Bellbrook Lab's Transcreener ADP^2 FI assay. An increase in the fluorescence intensity is directly proportional to the amount of PAICS activity.
The Transcreener ADP^2 FI assay is a homogeneous competitive displacement fluorescence intensity assay which uses direct immunodetection of ADP. Displacement of the tracer by ADP causes an increase in the fluorescence at excitation 590 nm and emission 617 nm (FIG. 3).
5 μl WT full length PAICS (final assay concentration, fac, 2.5 nM) in basic buffer, added to black, non-binding, 384-well plates (Corning #3575), columns 1 to 22. 5 μl basic buffer was added to columns 23+24 (negative control). PAICS stock at 31.9 μM from the PI's lab (Steve Firestine). Basic buffer contained 50 mM Tris-HCl pH8 and 0.5 mM EDTA, fac.
1 μl compound in 100% DMSO added per well, or 1 μl 100% DMSO to positive controls (columns 1+2) and negative controls (columns 23+24). Final assay top concentration of compound either 1 mM or 30-μM, serially diluted with half-log dilutions across the plate in duplicate (one 10-point concentration response curve across wells 3 to 12, another across 13 to 22). Compounds pre-incubated with PAICS enzyme for 30 mins at RT. 2 μl CAIR added (fac 10 μM) in basic buffer plus 25 mM MgCl2 and 50 mM KHCO3 fac to all wells. CAIR stock 50 mM from Steve Firestine's lab. 1 hr RT incubation for AIR-CAIR equilibration. NB: ˜50% CAIR is decarboxylated during equilibration therefore 5 μM remains for the synthetase reaction.
2 μl ATP/aspartic acid added (fac 30 μM/180 μM) in reaction buffer to all wells. 30 mins RT incubation for appropriate level of ATP turnover. Reaction buffer contained basic buffer plus 10 mM DTT, 0.01% BSA and 0.01% Brij 35, fac.
10 μl ADP detection reagent added to all wells (as per instructions, Transcreener ADP^2 FI kit, BellBrook Labs #3013-10K). Incubation for 1 h at RT to allow antibody equilibration. Fluorescence intensity determined using a Tecan Safire2 (excitation at 590 nm, emission at 617 nm).

The subject of assay [2] is LM2 and MDA-MB-231 breast cancer cell lines. Put plainly: PAICS 2D cell proliferation assay (CellTiter-Glo viability, 72 h). The settings on record: Homo sapiens; 72 h incubation; cell line not given. It counts as cell-based. The protocol:
PAICS 2D Cell Proliferation Assay
Frozen cryovial stocks of LM2 and MDA-MB-231 breast cancer cell lines were thawed and cultured in 4.5 g/L glucose DMEM (31966-047, Invitrogen) supplemented with 10% Fetal Bovine Serum (10500-064, Invitrogen) until confluent in a T175 flask. Cells were incubated at 37° C. with 5% CO2 in a humidified incubator.
Cells were collected from T175 flasks by washing with PBS (10010-056, Invitrogen) and dissociated using Accutase (A6964, Sigma Aldrich). This was followed by centrifuging (1200 rpm, 5 min) and resuspending the cells in 10 ml of media containing 1% penicillin/streptomycin (15140-122, Invitrogen). Cells were counted by trypan blue exclusion method using an automated cell counter (Cellometer) and diluted to a concentration of 40,000/ml. 1000 cells were then seeded into 384-well white-walled plates (Corning, 3707) in a volume of 25 μl. Plates were Incubated overnight at 37° C. with 5% CO2.
After 24 hours, PAICS compounds were added onto the assay plates using an HP D300 Digital Dispenser (Hewlett Packard). 10 mM stocks were used and dispensed as a 10 point concentration response curve (CRC) ½ log dilution series with a final top concentration of 100 μM. Controls were added onto each plate: positive controls included Staurosporine CRC (100 μM stock dispensed as a 10 point CRC ½ log dilution series with a final top concentration of 1 μM) and PAICS compound MRT00211919 (10 mM stock dispensed as a 10 point CRC ½ log dilution series with a final top concentration of 100 μM); a high control of Staurosporine (0.1 μM (LM2), 0.316 μM (MDA-MB-231) FAC) and a low control of media containing 1% DMSO. A final concentration of 1% DMSO was then added across the plates for normalisation. Following compound addition, assay plates were incubated for 72 hours at 37° C. with 5% CO2.
Day 5—Cytotoxicity and Cell Viability Assays
After 72 h incubation, dead and viable cells were measured in each assay plate. Cytotoxicity was assessed through fluorescent DNA staining using the CellTox™ Green Cytotoxicity Assay kit (G8743, Promega) following the manufacturer's multiplexing protocol. Impaired cell membrane integrity results in the access of dye to stain DNA allowing quantification of dead cells. Cell viability was determined following ATP quantification using the CellTiter-Glo® Luminescent Cell Viability Assay kit (G7572, Promega) following the manufacturer's protocol. ATP released from lysed cells allowed for the generation of a signal proportional to the number of cells present in the well. All endpoint reads were performed using the PheraSTAR Plus (BMG Labtech). Data is expressed as % viable cells and % dead cells against controls (mean±SEM of duplicate curves).

WT full length PAICS, sequence (P22234 whole entry): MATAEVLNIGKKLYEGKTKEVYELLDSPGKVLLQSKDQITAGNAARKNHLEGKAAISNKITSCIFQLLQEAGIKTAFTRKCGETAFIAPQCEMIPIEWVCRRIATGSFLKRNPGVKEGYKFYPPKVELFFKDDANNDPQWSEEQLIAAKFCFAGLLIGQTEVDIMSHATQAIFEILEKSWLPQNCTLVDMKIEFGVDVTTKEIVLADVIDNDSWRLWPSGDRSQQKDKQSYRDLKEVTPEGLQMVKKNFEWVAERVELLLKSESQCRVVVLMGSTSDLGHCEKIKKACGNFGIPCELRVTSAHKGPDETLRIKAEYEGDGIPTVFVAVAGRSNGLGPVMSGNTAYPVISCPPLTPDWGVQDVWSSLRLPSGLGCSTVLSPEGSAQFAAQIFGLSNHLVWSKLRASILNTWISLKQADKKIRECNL

In assay [1], `CN(C)CCOC(=O)N1CCN(c2ccc(Cl)c(NC(=O)c3coc(N)n3)c2)CC1` [Example 33, 2-(Dimethylamino)ethyl 4-(3-{[(2-amino-1,3-oxazol-4-yl)carbonyl]amino}-4-chlorophenyl)piperazine-1-carboxylate] returned an IC50 of 25 to 100 nM. The compound also came in with an EC50 in assay [2] of 500 to 1000 nM.

In assay [1], `CN1CC(OC(=O)N2CCN(c3ccc(Cl)c(NC(=O)c4coc(N)n4)c3)CC2)C1` [Example 34, 1-Methylazetidin-3-yl 4-(3-{[(2-amino-1,3-oxazol-4-yl)carbonyl]amino}-4-chlorophenyl)piperazine-1-carboxylate] yielded an IC50 of 25 to 100 nM. The compound also returned a concentration for a half-maximal effect (EC50) in assay [2] of 500 to 1000 nM.

In turn, `Nc1nc(C(=O)Nc2cc(N3CCN(C(=O)OCCNC4CC4)CC3)ccc2Cl)co1` [Example 35, 2-(Cyclopropylamino)ethyl 4-(3-{[(2-amino-1,3-oxazol-4-yl)carbonyl]amino}-4-chlorophenyl)piperazine-1-carboxylate] gave an IC50 in assay [1] of 25 to 100 nM. Besides, the EC50 in assay [2] fell in the range of 500 to 1000 nM.

Regarding `CN1CC(CN2CCN(c3ccc(Br)c(NC(=O)c4coc(N)n4)c3)CC2=O)C1` [Example 44], the concentration for half-maximal inhibition (IC50) in assay [1] is 10 to 25 nM. Moreover, in assay [2], the concentration for a half-maximal effect (EC50) is 500 to 1000 nM.

For `CN(C)CCN1CCN(c2ccc(Br)c(NC(=O)c3coc(N)n3)c2)CC1=O` [Example 45], the IC50 in assay [1] fell in the range of 10 to 25 nM. Besides, the EC50 in assay [2] fell in the range of 250 to 500 nM.

`CN(C)CCCN1CCN(c2ccc(Cl)c(NC(=O)c3coc(N)n3)c2)CC1=O` [Example 46, 2-Amino-N-(2-chloro-5-{4-[3-(dimethylamino)propyl]-3-oxopiperazin-1-yl}phenyl)-1,3-oxazole-4-carboxamide]: the IC50 in assay [1] was over 100 nM. The same compound came in with an EC50 in assay [2] of 500 to 1000 nM.

In assay [1], `NCCS(=O)(=O)N1CCN(c2ccc(Cl)c(NC(=O)c3coc(N)n3)c2)CC1` [Example 53, 2-Amino-N-(5-(4-(2-aminoethylsulfonyl)piperazin-1-yl)-2-chlorophenyl) oxazole-4-carboxamide] came in with an IC50 of 25 to 100 nM. In assay [2], this compound had an EC50 of 500 to 1000 nM.

Take `CN(C)CCS(=O)(=O)N1CCN(c2ccc(Br)c(NC(=O)c3coc(N)n3)c2)CC1` [Example 54, 2-Amino-N-[2-bromo-5-(4-{[2-(dimethylamino)ethyl]sulfonyl}piperazin-1-yl)phenyl]-1,3-oxazole-4-carboxamide]: the IC50 in assay [1] was under 10 nM. In assay [2], this compound registered an EC50 of 100 to 250 nM.

The compound `CNCCS(=O)(=O)N1CCN(c2ccc(Cl)c(NC(=O)c3coc(N)n3)c2)CC1` [Example 56, 2-Amino-N-[2-chloro-5-(4-{[2-(methylamino)ethyl]sulfonyl}piperazin-1-yl)phenyl]-1,3-oxazole-4-carboxamide] came in with an IC50 in assay [1] of 10 to 25 nM. In addition, in assay [2], the EC50 lay within 250 to 500 nM.

In turn, `CN(C)CCS(=O)(=O)N1CCN(c2ccc(Cl)c(NC(=O)c3coc(N)n3)c2)CC1` [Example 57, 2-Amino-N-[2-chloro-5-(4-{[2-(dimethylamino)ethyl]sulfonyl}piperazin-1-yl)phenyl]-1,3-oxazole-4-carboxamide] showed an IC50 in assay [1] of 10 to 25 nM. Also, the EC50 in assay [2] was in the range of 500 to 1000 nM.

`Nc1nc(C(=O)Nc2cc(N3CCN(S(=O)(=O)CCNC4CC4)CC3)ccc2Cl)co1` [Example 58, 2-Amino-N-[2-chloro-5-(4-{[2-(cyclopropylamino)ethyl]sulfonyl}piperazin-1-yl)phenyl]-1,3-oxazole-4-carboxamide] returned an IC50 in assay [1] of 25 to 100 nM. In addition, the EC50 in assay [2] lay in the range of 500 to 1000 nM.

Consider `CN1CCN(CCS(=O)(=O)N2CCN(c3ccc(Cl)c(NC(=O)c4coc(N)n4)c3)CC2)CC1` [Example 59, 2-Amino-N-[2-chloro-5-(4-{[2-(4-methylpiperazin-1-yl)ethyl]sulfonyl}piperazin-1-yl)phenyl]-1,3-oxazole-4-carboxamide], for which the IC50 in assay [1] fell in the range of 10 to 25 nM. In addition, the EC50 in assay [2] is 250 to 500 nM.

On to `CN(C)CCNCCS(=O)(=O)N1CCN(c2ccc(Cl)c(NC(=O)c3coc(N)n3)c2)CC1` [Example 60], for which, in assay [1], the concentration for half-maximal inhibition (IC50) lay in the range of 10 to 25 nM. The same compound displayed an EC50 in assay [2] of 250 to 500 nM.
